Series [1] is described as follows: Clinical trial, 2nd group: strain and anxiety. The conditions noted are these: 500 to 1500 mg/day. The format is in vivo, human. On the procedure: (§1) Clinical trials were performed on three groups of patients, partly hospitalized patients and partly outpatients. It was determined that the effect observed in the experimental pharmacological studies were useful in the treatment of humans as well.
The dose levels used with these patients varied between 500 and 1500 mg/day, divided into two or three doses which were given during the day.

Series [2] is described as follows: Protective effect against strychnine (single injection). It is filed as in vivo, mouse. The conditions noted are these: 30 minutes before strychnine. Here is the method:
This type of antagonism was evaluated in the mouse in three ways, namely: (1) protection from death from one hypodermic injection of strychnine: (2) evaluation of the LD50 of strychnine in mice both treated and untreated with AP-28, and (3) influence on the time required to cause animals to die by slow intravenous perfusion of strychnine. […] Groups of six mice were used. (2) increasing amounts of strychnine sulfate were injected hypodermically. In two experiments 200 or 400 mg/kg of intraperitoneal AP-28 were given 30 minutes prior to strychnine injection and the LD50 was calculated. The following results were obtained (95-percent confidence limits): […]

Series [3] can be described thus: Subacute toxicity, daily oral dosing for 6 consecutive days. The following applies: 500 mg/kg daily for 6 consecutive days. The format is in vivo, rat. Here is the method: Accordingly, 8 rats were given 500 mg/kg daily for 6 consecutive days.
Series [4] is described as follows: Clinical studies, overall. It is filed as in vivo, human. The conditions noted are these: humans. On the procedure:
as §1

Series [5] can be described thus: Excretion rate of intravenously-injected bromosulfonphthalein in bile. The format is in vivo. The following applies: single 500 mg/kg oral dose. On the procedure: (§2) The effect of a single 500 mg/kg oral dose of AP-28 was determined on (a) diuresis in water-loaded rats, (b) choleresis, (c) the excretion rate of intravenously-injected bromosulfonphthalein in bile, (d) arterial blood pressure.

Series [6] in a line: Choleresis. The format is in vivo. The following applies: single 500 mg/kg oral dose. Here is the method:
as §2

Series [7] is described as follows: Protective effect against electroshock (MES). The following applies: AP-28 250 mg/kg i.p., 10 minutes before electroshock.

“Also recorded” adds a separate entry of the source.

Take `CCCCOC(=O)NC1CCOC1=O` (stereo not drawn) [AP-28, α-n-butoxycarbonyl-amino-γ-butyrolactone]: the “somnolence, daily torpor or motive conceptual slowness” value in series [1] is recorded as “in no case somnolence, daily torpor or motive conceptual slowness were observed; also recorded: without causing daily drowsiness or torpor”. Besides, in series [1] (outpatients), the “disorders or difficulty in usual working activity” value is “No outpatient reported disorders or difficulty in carrying out their usual working activity”. In series [2] (250 mg/kg i.p.), the Animals with convulsions/treated was 7/7 and the Died/treated was 1/7. The “Time of death” value in series [2] (250 mg/kg i.p., extreme values) was 33 min. Moreover, in series [2] (500 mg/kg i.p.), the Animals with convulsions/treated is on record as 3/8 and the Died/treated is 0/8. For the same molecule, in series [2] (500 mg/kg os), the Animals with convulsions/treated was 5/9 and the Died/treated is 0/9. Further, in series [3], the “sedative effect or other abnormal symptoms” value is given as “No sedative effect or other abnormal symptoms were observed” and the “tendency to accumulate in the organism” value was “no tendency for AP-28 to accumulate in the organism”. In addition, the adverse effects entry in series [4] was “No adverse effects were observed”. Moreover, in series [5], the “excretion rate of bromosulfonphthalein in bile” value is “No treatment caused any significant change”. In series [6], the choleresis result is reported as “No treatment caused any significant change”. Further, the Number animals died in series [7] is given as 0/8. In series [7] (in parentheses number treated), the “Number animals with clonic convulsions” value is given as 8(8) and the “Number animals with tonic convulsions” value is reported as 0(8).

The values above are taken from patent US3968233A, “α-Amino-γ-butyrolactones as sedatives” (priority 1975, dated 1976).
